According to patent publication US20110039721A1, “METHOD FOR PREDICTION ABOUT CARCINOGENICITY OF SUBSTANCE IN RODENT” (Chemicals Evaluation and Research Institute, priority 2007, published 2011):

Key:
[1] = test system: mRNA expressed from the genes (A) to (D) in rat liver; assay: Behavior of genes (mRNA expression level, oligo-DNA microarray) in rat liver after 28-day oral administration; format: in vivo
Summary of the method: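 Male F344 SPF rats, 5 weeks old, four per group, dosed by oral gavage once daily for 28 days with test chemical or matched-volume solvent. Liver total RNA profiled on oligo-DNA microarray. Change ≥1.5-fold or ≤1/1.5 versus vehicle counted as significant if its direction matched that seen with other carcinogens.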

[2] = test system: liver; details: in vivo; cited from earlier work
[3] = test system: rodent; details: classification of the substance (C+/C−); cited from earlier work
[4] = classification of the substance (M+/M−); cited from earlier work
[5] = gene group (A), Unigene No. Rn.167075
[6] = gene group (C), Unigene No. Rn.120914

Q: For `O=C(OC[C@H]1O[C@@H](OC(=O)c2cc(O)c(O)c(OC(=O)c3cc(O)c(O)c(O)c3)c2)[C@H](OC(=O)c2cc(O)c(O)c(OC(=O)c3cc(O)c(O)c(O)c3)c2)[C@@H](OC(=O)c2cc(O)c(O)c(OC(=O)c3cc(O)c(O)c(O)c3)c2)[C@@H]1OC(=O)c1cc(O)c(O)c(OC(=O)c2cc(O)c(O)c(O)c2)c1)c1cc(O)c(O)c(OC(=O)c2cc(O)c(O)c(O)c2)c1` [TS052, Tannic acid], which “Behavior of gene caused by administration of chemical substance, Gene No. 4846” value ([1]; gene group (A), Unigene No. Rn.144554) is on record?
A: −

Q: What about the “Behavior of gene caused by administration of chemical substance, Gene No. 2026” value [1, 5] of the same molecule?
A: −

Q: What about the “Behavior of gene caused by administration of chemical substance, Gene No. 4218” value [1, 5] of the same molecule?
A: −

Q: And the “Behavior of gene caused by administration of chemical substance, Gene No. 6182” value ([1]; gene group (A), Unigene No. Rn.5834)?
A: −

Q: What about the “Behavior of gene caused by administration of chemical substance, Gene No. 5600” value ([1]; gene group (A), Unigene No. Rn.9836) of the same molecule?
A: −

Q: What about the “Behavior of gene caused by administration of chemical substance, Gene No. 1494” value ([1]; gene group (B), Unigene No. Rn.1430) of the same molecule?
A: −

Q: And the “Behavior of gene caused by administration of chemical substance, Gene No. 2045” value ([1]; gene group (B), Unigene No. Rn.19329)?
A: −

Q: What about the “Behavior of gene caused by administration of chemical substance, Gene No. 2203” value ([1]; gene group (B), Unigene No. Rn.21240) of the same molecule?
A: +

Q: What about the “Behavior of gene caused by administration of chemical substance, Gene No. 533” value ([1]; gene group (C), Unigene No. Rn.106184) of the same molecule?
A: −

Q: And the “Behavior of gene caused by administration of chemical substance, Gene No. 725” value ([1]; gene group (C), Unigene No. Rn.108075)?
A: −

Q: What about the “Behavior of gene caused by administration of chemical substance, Gene No. 1163” value ([1]; gene group (C), Unigene No. Rn.11766) of the same molecule?
A: +

Q: And the “Behavior of gene caused by administration of chemical substance, Gene No. 4973” value ([1]; gene group (C), Unigene No. Rn.118529)?
A: −

Q: And the “Behavior of gene caused by administration of chemical substance, Gene No. 4095” value ([1]; gene group (C), Unigene No. Rn.119024)?
A: −

Q: What about the “Behavior of gene caused by administration of chemical substance, Gene No. 1334” value [1, 6] of the same molecule?
A: −

Q: And the “Behavior of gene caused by administration of chemical substance, Gene No. 6620” value [1, 6]?
A: −

Q: And the “Behavior of gene caused by administration of chemical substance, Gene No. 6303” value ([1]; gene group (C), Unigene No. Rn.123063)?
A: −

Q: What about the “Behavior of gene caused by administration of chemical substance, Gene No. 5878” value ([1]; gene group (C), Unigene No. Rn.143213) of the same molecule?
A: −

Q: What about the “Behavior of gene caused by administration of chemical substance, Gene No. 1131” value ([1]; gene group (C), Unigene No. Rn.144946) of the same molecule?
A: −

Q: What about the “Behavior of gene caused by administration of chemical substance, Gene No. 1562” value ([1]; gene group (C), Unigene No. Rn.14744) of the same molecule?
A: −

Q: What about the “Behavior of gene caused by administration of chemical substance, Gene No. 1741” value ([1]; gene group (C), Unigene No. Rn.1647) of the same molecule?
A: −

Q: What about the “Behavior of gene caused by administration of chemical substance, Gene No. 893” value ([1]; gene group (C), Unigene No. Rn.164817) of the same molecule?
A: −

Q: What about the “Behavior of gene caused by administration of chemical substance, Gene No. 6026” value ([1]; gene group (C), Unigene No. Rn.167685) of the same molecule?
A: −

Q: What about the “Behavior of gene caused by administration of chemical substance, Gene No. 154” value ([1]; gene group (C), Unigene No. Rn.185941) of the same molecule?
A: −

Q: And the “Behavior of gene caused by administration of chemical substance, Gene No. 1993” value ([1]; gene group (C), Unigene No. Rn.18728)?
A: −

Q: And the “Behavior of gene caused by administration of chemical substance, Gene No. 813” value ([1]; gene group (C), Unigene No. Rn.201760)?
A: −

Q: And the “Behavior of gene caused by administration of chemical substance, Gene No. 2494” value ([1]; gene group (C), Unigene No. Rn.23969)?
A: −

Q: And the “Behavior of gene caused by administration of chemical substance, Gene No. 2546” value ([1]; gene group (C), Unigene No. Rn.24561)?
A: −

Q: What about the “Behavior of gene caused by administration of chemical substance, Gene No. 3776” value ([1]; gene group (C), Unigene No. Rn.43232) of the same molecule?
A: −

Q: And the “Behavior of gene caused by administration of chemical substance, Gene No. 3929” value ([1]; gene group (C), Unigene No. Rn.4620)?
A: −

Q: And the “Behavior of gene caused by administration of chemical substance, Gene No. 1119” value ([1]; gene group (C), Unigene No. Rn.9757)?
A: −

Q: And the “Behavior of gene caused by administration of chemical substance, Gene No. 6742” value ([1]; gene group (C), Unigene No. Rn.9779)?
A: −

Q: What about the “Behavior of gene caused by administration of chemical substance, Gene No. 5634” value ([1]; gene group (C), Unigene No. Rn.9862) of the same molecule?
A: −

Q: What about the “Behavior of gene caused by administration of chemical substance, Gene No. 5726” value ([1]; gene group (D), Unigene No. Rn.9939) of the same molecule?
A: −

Q: And the Liver carcinogenicity [2]?
A: Cr+

Q: What about the Carcinogenicity [3] of the same molecule?
A: C+

Q: What about the “Mutagenicity by Ames test” value [4] of the same molecule?
A: M−
